Legend:
[1] = Organ distribution of Se-75 labeled compound in rats after intravenous injection; format: in vivo, Spraque-Dawley male rats; settings: rat; for % dose/organ, blood: blood assumed 7% of body weight; for % dose/organ, muscle: muscle assumed 40% of body weight
Text: FIGS. 2 and 3 respectively show the relative concentration of Se-75 labeled di-β-(piperidinoethyl)-selenide and di-β-(morpholinoethyl)-selenide in rat brains at several time intervals after an intravenous injection of a dose of the respective compounds into the rat. As is shown in FIG. 3, and also in Table 4, two minutes after an intravenous injection of Se-75 labeled di-β-(morpholinoethyl)-selenide, the brain uptake of the radiopharmaceutical compound reaches a value of 3.19%. […] The terms uptake, % uptake or % dose are used to describe the percentage of the radiopharmaceutical compound contained in a given organ or tissue as compared to the total initial dose. The numerical values in FIGS. 2 and 3 and Tables 3 and 4 represent such percentages.
Studies of distribution of the radiopharmaceutical compounds of the present invention in rats, the results of which are reflected in FIGS. 2 and 3 and Tables 3 and 4, were conducted according to standard practice in the pharmacological sciences, and therefore need not be described here in great detail. Nevertheless, for the sake of complete understanding of the present invention, some experimental details of these studies are briefly described below:
Spraque-Dawley male rats (220-300 g) were injected intravenously (femoral vein) with a 0.2 ml solution (0.5-2 micro Ci) under light ether anaesthesia. At different time periods after the injection, the animals were sacrificed and organs of interest were excised and counted in a well counter. Percent dose was estimated by comparison of tissue counts to suitably diluted aliquots of the injected material. Total activities in blood and muscle were calculated by assuming that they are 7% and 40% of the body weight respectively.

[2] = n-octanol-aqueous medium partition coefficient pH correlation; format: physicochemical; settings: pH 7.4; morpholinoethyl vs piperidinoethyl selenide
Text: The n-octanol-aqueous medium partition coefficients of the compound are readily measured in accordance with standard practice in the prior art. Briefly, such measurements include the steps of dissolving a known amount of the compound in an aqueous buffer of a predetermined pH and extracting the buffer solution with a known amount of n-octanol until an equilibrium of distribution of the compound between the aqueous and n-octanol phases occurs. The concentration of the compound in both phases is then measured by suitable analytical means, such as ultraviolet spectrophotometry; the partition coefficient being the ratio of the two measured concentrations.
For the purposes of evaluating a plurality of radioactive compounds for use in the novel method of the present invention, the n-octanol-aqueous medium partition coefficients of the compounds were measured in the following manner. The radioactive compound was mixed with 1.0 ml of n-octanol and 1.0 ml of buffer of the desired predetermined pH. The radioactivity of this mixture was counted, and the mixture was placed in a water bath shaker at 37° C. for 2 hours. After centrifugation at 3,000 rpm for 5 minutes, the n-octanol layer was separated and its radioactivity counted. The partition coefficient of the compound was calculated by the following equation: [formula]

[3] = Brain imaging study on rhesus monkey (Cleon 710 ECAT scanner); format: in vivo, rhesus monkeys; settings: 5.3 kg monkey, 1 mCi injected, images 15 minutes to 2 hours
Method: In addition to the above described organ and tissue distribution studies in rats of the several compounds of the present invention, brain imaging studies were also conducted on rhesus monkeys using a Cleon 710 ECAT scanner.
A 5.3 kg monkey, lightly sedated with Ketalar, was injected with 1 mCi of di-β-(morpholinoethyl)-selenide, (specific activity 1 mCi/mg). Five minutes later the monkey was anaesthetized with pentabarbital. A series of tomographic images was taken at roughly 1/2" intervals starting at the vertex. The first image was started 15 minutes after injection and various images were recorded up to 2 hours after injection. Each image contained approximately one million counts. At the conclusion of the imaging experiment, the monkey was killed and the brain was assayed in the dose calibrator used for measuring the injected dose. No correction was applied for the change in geometry between the syringe and the monkey brain. The weight of the brain was 84 g.

[4] = i.v., 15 min (average of 6 rats)

SMILES: C1CN(CC[75Se]CCN2CCOCC2)CCO1 [di-β-(morpholinoethyl)-selenide]
- decrease of brain content (% dose) (in words) ([1]; after intravenous injection): decreases much more rapidly after the intravenous injection than that of di-β-(piperidinoethyl)-selenide
- penetration of the blood brain barrier (in words) ([1]; i.v.): capable of penetrating the blood brain barrier
- % dose/organ, heart ([1]; i.v., 2 min): 0.45%
- % dose/organ, kidney ([1]; i.v., 2 min): 9.89%
- % dose/organ, liver ([1]; i.v., 2 min): 18.3%
- % dose/organ, lung(2) ([1]; i.v., 2 min): 2.77%
- % dose/organ, pancreas ([1]; i.v., 2 min): 0.88%
- % dose/organ, spleen ([1]; i.v., 2 min): 0.68%
- % dose/organ, brain (brain uptake) ([1]; i.v., 2 min (morpholinoethyl: average of 5 samples)): 3.19%
- % dose/organ, blood ([1]; i.v., 2 min): 3.13%
- % dose/organ, muscle ([1]; i.v., 2 min): 10.5%
- % dose/organ, brain (brain uptake) ([1]; i.v., 5 min): 2.80%
- % dose/organ, kidney ([1]; i.v., 5 min): 7.46%
- % dose/organ, liver ([1]; i.v., 5 min): 19.7%
- % dose/organ, spleen ([1]; i.v., 5 min): 0.87%
- % dose/organ, blood ([1]; i.v., 5 min): 2.72%
- % dose/organ, muscle ([1]; i.v., 5 min): 15.0%
- % dose/organ, brain (brain uptake) [1, 4]: 2.23%
- % dose/organ, kidney [1, 4]: 4.04%
- % dose/organ, liver [1, 4]: 22.1%
- % dose/organ, spleen [1, 4]: 1.23%
- % dose/organ, blood [1, 4]: 2.26%
- % dose/organ, muscle [1, 4]: 19.4%
- % dose/organ, brain (brain uptake) ([1]; i.v., 30 min): 1.53%
- % dose/organ, heart ([1]; i.v., 30 min): 0.22%
- % dose/organ, kidney ([1]; i.v., 30 min): 4.03%
- % dose/organ, liver ([1]; i.v., 30 min): 23.3%
- % dose/organ, lung(2) ([1]; i.v., 30 min): 1.79%
- % dose/organ, pancreas ([1]; i.v., 30 min): 0.38%
- % dose/organ, spleen ([1]; i.v., 30 min): 1.55%
- % dose/organ, blood ([1]; i.v., 30 min): 2.82%
- % dose/organ, muscle ([1]; i.v., 30 min): 14.4%
- % dose/organ, brain (brain uptake) ([1]; i.v., 1 hr): 1.19%
- % dose/organ, kidney ([1]; i.v., 1 hr): 4.30%
- % dose/organ, liver ([1]; i.v., 1 hr): 29.9%
- % dose/organ, blood ([1]; i.v., 1 hr): 2.61%
- % dose/organ, muscle ([1]; i.v., 1 hr): 13.6%
- % dose/organ, brain (brain uptake) ([1]; i.v., 2 hr): 0.56%
- % dose/organ, heart ([1]; i.v., 2 hr): 0.18%
- % dose/organ, kidney ([1]; i.v., 2 hr): 3.42%
- % dose/organ, liver ([1]; i.v., 2 hr): 21.7%
- % dose/organ, lung(2) ([1]; i.v., 2 hr): 0.94%
- % dose/organ, pancreas ([1]; i.v., 2 hr): 0.25%
- % dose/organ, spleen ([1]; i.v., 2 hr): 0.88%
- % dose/organ, blood ([1]; i.v., 2 hr): 2.46%
- % dose/organ, muscle ([1]; i.v., 2 hr): 17.7%
- % dose/organ, brain (brain uptake) ([1]; i.v., 6 hr): 0.10%
- % dose/organ, kidney ([1]; i.v., 6 hr): 0.64%
- % dose/organ, liver ([1]; i.v., 6 hr): 4.38%
- % dose/organ, spleen ([1]; i.v., 6 hr): 0.19%
- % dose/organ, blood ([1]; i.v., 6 hr): 0.61%
- % dose/organ, muscle ([1]; i.v., 6 hr): 3.43%
- % dose/organ, brain (brain uptake) ([1]; i.v., 24 hr): 0.02%
- % dose/organ, heart ([1]; i.v., 24 hr): 0.02%
- % dose/organ, kidney ([1]; i.v., 24 hr): 0.29%
- % dose/organ, liver ([1]; i.v., 24 hr): 2.15%
- % dose/organ, lung(2) ([1]; i.v., 24 hr): 0.04%
- % dose/organ, pancreas ([1]; i.v., 24 hr): 0.01%
- % dose/organ, spleen ([1]; i.v., 24 hr): 0.10%
- % dose/organ, blood ([1]; i.v., 24 hr): 0.13%
- % dose/organ, muscle ([1]; i.v., 24 hr): 0.74%
- partition coefficient / lipid solubility at the pH of the blood (in words) [2]: higher partition coefficient at the pH of the blood (7.4) than di-β-(piperidinoethyl)-selenide
- distribution in monkey brain (in words) [3]: resembles the distribution observed for F-18 2-fluoro-2-deoxyglucose or for N-13 labeled ammonia, with a higher uptake of the radiopharmaceutical compound in gray matter of the brain than in white matter

Reference: patent US4363793A, “Diagnostic radiopharmaceuticals for localization in target tissues exhibiting a regional pH shift relative to surrounding tissues” (State University of New York, priority 1980, dated 1982)
